Laboratory results published in patent US20200000742A1, “COMBINATION” (priority 2016, published 2020).

Tested on: log phase NDM-1 Klebsiella Pneumoniae (NCTC13443)
Assay: Time-kill method over 24 hours (CFU counts)
Assay type: cell-based
Details: FIG. 1
Method: As described hereinabove, time-kill methods are another accepted test for ascertaining the presence or absence of synergy, and involve comparing the dynamic effect of a drug combination with each drug alone when assessing the effect on bacterial log or stationary-growth over time.
• 1. Bacterial strain used: NCTC13443 strain of Klebsiella Pneumoniae • 2. Growth of bacteria: Log phase growth of NCTC13443 was carried out according to known methods in the art, e.g. SOP R-005-00 Log Phase Growth of Bacteria. • 3. Compound preparation: dichlorophen and meropenem trihydrate were both obtained from commercial sources (e.g. Sigma-Aldrich® UK). • 4. The overnight culture was diluted with nutrient broth (Oxoid) to 10^7 CFU/ml and 280 μl and 290 μl of the culture was added to each combination well and drug respectively, to make the final concentration of 300 μl. • 5. Incubation of the compounds with the bacterial suspension was carried out for 24 hours. At 0, 2, 4, 7 and 24 hours, CFU counts were performed to measure the kill effects of the drug combination.

## Oc1ccc(Cl)cc1Cc1cc(Cl)ccc1O [dichlorophen, 4-chloro-2-[(5-chloro-2-hydroxyphenyl)methyl] phenol]
Used alone at 64 mg/L
  effect against log phase NDM-1 Klebsiella Pneumoniae (time-kill): little or no effect

## C[C@@H](O)[C@H]1C(=O)N2C(C(=O)O)=C(S[C@@H]3CN[C@H](C(=O)N(C)C)C3)[C@H](C)[C@H]12 [meropenem trihydrate]
Used alone at 512 mg/L
  effect against log phase NDM-1 Klebsiella Pneumoniae (time-kill): little or no effect
